{
  "source": "patent US10865157B2",
  "about": "“Methods and compositions for increasing the yield of, and beneficial chemical composition of, certain plants” (B.K. Consultants, Inc., priority 2014, dated 2020)",
  "origin": "cited, not measured here",
  "settings": "similarly sized particles",
  "data": [
    {"smiles": "CC(=O)Oc1ccccc1C(=O)O", "note": "[non-crystalline aspirin, aspirin]", "values": [
      {"measurement": "solubility in water relative to the crystal form", "value": "2 to 8", "unit": "times"}
    ]}
  ]
}
